Assay results reported in patent US20250269018A1, “COMBINED CANCER THERAPY WITH AN EPITHELIAL CELL ADHESION MOLECULE (EPCAM) INHIBITOR AND A HEPATOCYTE GROWTH FACTOR RECEPTOR (HGFR) INHIBITOR” (ACADEMIA SINICA, priority 2021, published 2025).

T1: EpCAM and HGFR (Homo sapiens, UniProt P16422)
T1 construct: as detected by IP of endogenous proteins in HCT116 cells; endogenous in cells; host or cells: HCT116
T1 sequence (P16422 24-314): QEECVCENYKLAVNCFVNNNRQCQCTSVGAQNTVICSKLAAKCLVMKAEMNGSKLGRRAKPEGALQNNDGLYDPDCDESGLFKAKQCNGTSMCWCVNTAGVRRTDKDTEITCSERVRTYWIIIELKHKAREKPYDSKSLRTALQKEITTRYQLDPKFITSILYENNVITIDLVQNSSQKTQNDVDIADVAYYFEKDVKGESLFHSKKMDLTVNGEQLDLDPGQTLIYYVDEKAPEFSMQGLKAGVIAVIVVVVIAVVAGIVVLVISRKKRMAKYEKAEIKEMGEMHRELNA

B1: EpAb2-6: anti-EpCAM neutralizing monoclonal antibody targeting EpEX; VH SEQ ID NO: 15, VL SEQ ID NO: 16 (antibody, listed as Homo sapiens, V domains shown)
VH: VKLQESGPELKKPGETVKISCKASGYTFTDYSMHWVKQAPGKGLKWMGWINTETGEPTYADDFKGRFAFSLETSASTAYLQINNLKNEDTATYFCARTAVYWGQGTTVTVSS
VL: DIQMTQSPSSLSASLGERVSLTCRASQEISVSLSWLQQEPDGTIKRLIYATSTLDSGVPKRFSGSRSGSDYSLTISSLESEDFVDYYCLQYASYPWTFGGGTKLEIKRADAAPTVS

Tests used:
[1] = tested on: HGFR signaling; test: Western blotting of phosphorylated ERK and AKT in HT29 cells; type: cell-based, human; settings: SU11274 with EpEX-His, FIG. 2C
Experimental: FIGS. 2A to 2K. EpEX promotes tumor progression via HGFR signaling. (FIG. 2A) WT or EpCAM knockout (KO) HCT116 and HT29 cells treated with HGF (0.5 nM) for 15 min. The phosphorylation of HGFR, AKT, and ERK was examined by Western blotting. (FIG. 2B) WT or KO HCT116 and HT29 cells were treated with HGF (0.5 nM) with 2% FBS for the indicated times. Cell growth was examined by the WST-1 assay. (FIG. 2C) Starved HCT116 cells were treated with HGFR inhibitor SU11274 (SU, 10 μM) for 1 h then treated with 50 nM of EpEX-His for 15 min. The levels of phosphorylated HGFR, EGFR, AKT, and ERK were examined by Western blotting. HCT116 and HT29 cells were treated with 50 nM EpEX and SU (10 μM). […]
Whole cell extracts were prepared with RIPA buffer (50 mM Tris-HCl pH7.4, 1% NP-40, 0.5% Sodium deoxycholate, 0.1% SDS, 150 mM NaCl, 2 mM EDTA, 50 mM NaF). Protein concentrations of the cell lysates were determined by the Bradford assay. […]
Appropriate horseradish peroxidase-associated secondary antibodies (Millipore) were applied and the membranes were incubated at room temperature (RT) for 1 h. The protein bands were subsequently visualized with chemiluminescence reagents (Millipore) and detected on a BioSpectrum 600 Imaging system (UVP). The protein level was quantified from band intensity using Gel-Pro analyzer 3.1 (Media Cybernetics).

[2] = biological target: T1, EpCAM and HGFR; test: Immunoprecipitation of endogenous EpCAM and HGFR in HCT116 cells; type: cell-based; settings: 6 h treatment, IP of endogenous proteins, FIG. 6E
Experimental: FIGS. 6A to 6J. EpAb2-6 inhibits EpCAM and HGFR signaling and promotes active β-catenin and Snail protein degradation via activating GSK3β. (FIG. 6A) HCT116 cells were treated with 10 μg/ml control IgG (normal mouse IgG, NMIgG) or mouse EpAb2-6 (EpAb2-6) for 16 h, followed by treatment with EpEX-His (50 nM) for 15 min. Levels of phosphorylated HGFR, AKT, FAK, GSK3β, ERK, ADAM17, and presenilin 2 were examined by Western blotting. (FIG. 6B) HCT116 cells were treated with 10 μg/ml control IgG or mouse EpAb2-6 for 16 h, followed by treatment without or with HGF (0.5 nM) for 15 min. Levels of phosphorylated HGFR, AKT, and ERK were examined by Western blotting. HCT116 cells were treated with mouse EpAb2-6 (10 μg/ml) and HGF (0.5 nM). […] (FIG. 6D) Cell invasion was assessed by a Transwell assay with matrigel after 24 h. […] (FIG. 6F) EpEX-His (2 μg/ml) co-treated with 1 μg IgG or EpAb2-6 was added to HGFR-Fc-coated (1 μg/ml) ELISA plates and detected by TMB colorimetric peroxidase assay. (FIG. 6G) EMT associated protein levels were detected by Western blotting in HCT116 cells treated with NMIgG or EpAb2-6 for 24 h. (FIG. 6H) Protein expression was analyzed by Western blotting in HCT116 cells after treatment with EpAb2-6 and 2 μM GSK3β inhibitor (BIO) for 24 h. Quantification of the normalized protein expression in the bottom panel. […]

Molecule	EpEX-mediated ERK and AKT phosphorylation [1]	association between EpCAM and HGFR [2]
Cc1[nH]c(C=C2C(=O)Nc3ccc(S(=O)(=O)N(C)c4cccc(Cl)c4)cc32)c(C)c1C(=O)N1CCN(C)CC1 (stereo in doubt) [SU11274, (3Z)-N-(3-Chlorophenyl)-3-({3,5-dimethyl-4-[(4-methylpiperazin-1-yl)carbonyl]-1H-pyrrol-2-yl}methylene)-N-methyl-2-oxo-2,3-dihydro-1H-indole-5-sulfonamide]	attenuate EpEX-mediated ERK and AKT phosphorylation	–
B1	–	decreased the association between EpCAM and HGFR
